Experimental data from US12435059B2, “AMP-activated protein kinase inhibitors and methods of making and using the same” (The Regents of the University of Colorado, priority 2019, dated 2025).
Read-outs that look alike come from different tables or passages of the source.

Legend:
Experiment in all cases: biochemical
Type in all cases: binding
[1] = target: 468 kinases (Homo sapiens, UniProt P45985); details: MEK4; read-out: % Inhibition @ 100 nM
[2] = target: 468 kinases (Homo sapiens, UniProt Q52WX2); details: SBK1; read-out: % Inhibition @ 100 nM
[3] = target: 468 kinases (Homo sapiens, UniProt P09769); details: FGR; read-out: % Inhibition @ 100 nM
[4] = target: 468 kinases (Homo sapiens, UniProt Q86UE8); details: TLK2; read-out: % Inhibition @ 100 nM
[5] = target: 468 kinases (Homo sapiens, UniProt Q9HBH9); details: MKNK2; read-out: % Inhibition @ 100 nM
[6] = target: 468 kinases (Homo sapiens, UniProt P49840); details: GSK3A; read-out: % Inhibition @ 100 nM
[7] = target: 468 kinases (Homo sapiens, UniProt Q16584); details: MLK3; read-out: % Inhibition @ 100 nM
[8] = target: 468 kinases (Homo sapiens, UniProt Q9Y2H1); details: NDR2; read-out: % Inhibition @ 100 nM
[9] = target: 468 kinases (Homo sapiens, UniProt Q5S007); details: LRRK2; read-out: % Inhibition @ 100 nM
[10] = target: 468 kinases (Homo sapiens, UniProt P49761); details: CLK3; read-out: % Inhibition @ 100 nM
[11] = target: 468 kinases (Homo sapiens, UniProt P29597); details: read-out: % Inhibition @ 100 nM
[12] = target: 468 kinases (Homo sapiens, UniProt Q9UBF8); details: PIK4CB; read-out: % Inhibition @ 100 nM
[13] = target: 468 kinases (Homo sapiens, UniProt Q02750); details: MEK1; read-out: % Inhibition @ 100 nM
[14] = target: 468 kinases (Homo sapiens, UniProt P06213); details: INSR; read-out: % Inhibition @ 100 nM
[15] = target: 468 kinases (Homo sapiens, UniProt P53350); details: PLK1; read-out: % Inhibition @ 100 nM
[16] = target: 468 kinases (Homo sapiens, UniProt O75385); details: ULK1; read-out: % Inhibition @ 100 nM
[17] = target: 468 kinases (Homo sapiens, UniProt P41240); details: CSK; read-out: % Inhibition @ 100 nM
[18] = target: 468 kinases (Homo sapiens, UniProt P51617); details: IRAK1; read-out: % Inhibition @ 100 nM
[19] = target: 468 kinases (Homo sapiens, UniProt Q9Y616); details: IRAK3; read-out: % Inhibition @ 100 nM
[20] = target: 468 kinases (Homo sapiens, UniProt Q13554); details: CAMK2B; read-out: % Inhibition @ 100 nM
[21] = target: 468 kinases (Homo sapiens, UniProt Q13557); details: CAMK2D; read-out: % Inhibition @ 100 nM
[22] = target: 468 kinases (Homo sapiens, UniProt P10721, D816V); details: KIT(D816V); read-out: % Inhibition @ 100 nM
[23] = target: 468 kinases (Homo sapiens, UniProt Q96PN8); details: TSSK3; read-out: % Inhibition @ 100 nM
[24] = target: 468 kinases (Homo sapiens, UniProt Q9P286); details: PAK7; read-out: % Inhibition @ 100 nM
[25] = target: 468 kinases (Homo sapiens, UniProt P00519, Q252H); details: read-out: % Inhibition @ 100 nM
[26] = target: 468 kinases (Homo sapiens, UniProt P20794); details: MAK; read-out: % Inhibition @ 100 nM
[27] = target: 468 kinases (Homo sapiens, UniProt Q9BQI3); details: EIF2AK1; read-out: % Inhibition @ 100 nM
[28] = target: 468 kinases (Homo sapiens, UniProt Q96J92); details: WNK4; read-out: % Inhibition @ 100 nM
[29] = target: 468 kinases (Homo sapiens, UniProt Q9NRP7); details: STK36; read-out: % Inhibition @ 100 nM
[30] = target: 468 kinases (Homo sapiens, UniProt Q92630); details: DYRK2; read-out: % Inhibition @ 100 nM
[31] = target: 468 kinases (Homo sapiens, UniProt Q15139); details: PRKD1; read-out: % Inhibition @ 100 nM
[32] = target: 468 kinases (Homo sapiens, UniProt P57058); details: HUNK; read-out: % Inhibition @ 100 nM
[33] = target: 468 kinases (Homo sapiens, UniProt P36888); details: read-out: % Inhibition @ 100 nM

Structure (SMILES) | inhibition at 0.1 µM [1] | inhibition at 0.1 µM [2] | inhibition at 0.1 µM [3] | inhibition at 0.1 µM [4] | inhibition at 0.1 µM [5] | inhibition at 0.1 µM [6] | inhibition at 0.1 µM [7] | inhibition at 0.1 µM [8] | inhibition at 0.1 µM [9] | inhibition at 0.1 µM [10] | inhibition at 0.1 µM ([11]; TYK2(JH1domain-catalytic)) | inhibition at 0.1 µM ([11]; TYK2(JH2domain-pseudokinase)) | inhibition at 0.1 µM [12] | inhibition at 0.1 µM [13] | inhibition at 0.1 µM [14] | inhibition at 0.1 µM [15] | inhibition at 0.1 µM [16] | inhibition at 0.1 µM [17] | inhibition at 0.1 µM [18] | inhibition at 0.1 µM [19] | also measured
CCN(CC)CCNC(=O)c1c(C)[nH]c(/C=C2\C(=O)Nc3ccc(CCO)cc32)c1C [Compound No. 10, (Z)—N-(2-(Diethylamino)ethyl)-5-((5-(2-hydroxyethyl)-2-oxoindolin-3-ylidene)methyl)-2,4-dimethyl-1H-pyrrole-3-carboxamide] | 0% | 40% | 16% | 0% | 0% | 3% | 20% | 0% | 96.5% | 5% | 1% | 0% | 0% | 64% | 0% | 0% | 58% | 0% | 99.3% | 0% | inhibition at 0.1 µM [20]: 0%; inhibition at 0.1 µM [21]: 20%; inhibition at 0.1 µM [22]: 12%; inhibition at 0.1 µM [23]: 4%; inhibition at 0.1 µM [24]: 0%; inhibition at 0.1 µM ([25]; ABL1 (Q252H)-nonphosphorylated): 33%; inhibition at 0.1 µM ([25]; ABL1 (Q252H)-phosphorylated): 19%; inhibition at 0.1 µM [26]: 0%; inhibition at 0.1 µM [27]: 0%; inhibition at 0.1 µM [28]: 0%; inhibition at 0.1 µM [29]: 0%; inhibition at 0.1 µM [30]: 18%; inhibition at 0.1 µM [31]: 0%; inhibition at 0.1 µM [32]: 13%; inhibition at 0.1 µM ([33]; FLT3 -autoinhibited): 81%; inhibition at 0.1 µM ([33]; FLT3): 96.7%
CCN(CC)CCNC(=O)c1c(C)[nH]c(/C=C2\C(=O)Nc3ccc(CCC(N)=O)cc32)c1C [Compound No. 16, (Z)-5-((5-(3-Amino-3-oxopropyl)-2-oxoindolin-3-ylidene)methyl)-N-(2-(diethylamino)ethyl)-2,4-dimethyl-1H-pyrrole-3-carboxamide] | 97.7% | 58% | 32% | 23% | 52% | 10% | 0% | 11% | 94% | 10% | 33% | 39% | 10% | 56% | 25% | 28% | 56% | 1% | 96.9% | 100% | inhibition at 0.1 µM [20]: 10%; inhibition at 0.1 µM [21]: 4%; inhibition at 0.1 µM [22]: 24%; inhibition at 0.1 µM [23]: 5%; inhibition at 0.1 µM [24]: 11%; inhibition at 0.1 µM ([25]; ABL1 (Q252H)-nonphosphorylated): 55%; inhibition at 0.1 µM ([25]; ABL1 (Q252H)-phosphorylated): 54%; inhibition at 0.1 µM [26]: 4%; inhibition at 0.1 µM [27]: 42%; inhibition at 0.1 µM [28]: 55%; inhibition at 0.1 µM [29]: 0%; inhibition at 0.1 µM [30]: 34%; inhibition at 0.1 µM [31]: 0%; inhibition at 0.1 µM [32]: 0%; inhibition at 0.1 µM ([33]; FLT3 -autoinhibited): 61%; inhibition at 0.1 µM ([33]; FLT3): 62%
